Experimental data taken from PubChem BioAssay (NCI).
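Tested at 5 concentrations; 48 h exposure; 96-well plates; endpoints linearly interpolated, else capped at highest concentration. GI50 marks 50% less growth. TGI is the concentration that stops growth completely.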

How the values were obtained:
Assay in all cases: NCI tumour cell line growth inhibition, 48 h
[1] = test system: DLD-1 colon
[2] = test system: DMS 273 small cell lung
[3] = test system: HOP-18 NSCLC
[4] = test system: KM20L2 colon
[5] = test system: LXFL 529 NSCLC
[6] = test system: M19-MEL melanoma
[7] = test system: RXF-631 renal
[8] = test system: SNB-78 CNS
[9] = test system: P388 leukemia
[10] = test system: P388/ADR leukemia
[11] = test system: SN12K1 renal
[12] = test system: XF 498 CNS

| Structure (SMILES) | TGI [1] | TGI [2] | TGI [3] | TGI [4] | TGI [5] | TGI [6] | TGI [7] | TGI [8] | TGI [9] | TGI [10] | TGI [11] | GI50 [1] | GI50 [2] | GI50 [3] | GI50 [5] | GI50 [6] | GI50 [12] | TGI [12] |
| --- | --- | --- | --- | --- | --- | --- | --- | --- | --- | --- | --- | --- | --- | --- | --- | --- | --- | --- |
| O=C1C(CN2CCOCC2)CCCC1CN1CCOCC1 (stereo unspecified) | 1.83 µM | 19.4 µM | 3.2 µM | 58.2 µM | 2.96 µM | 17.3 µM | 30.4 µM | 5.02 µM | – | – | – | – | – | – | – | – | – | – |
| CCc1nc2ccc(NCCN(C)C)c3c(=O)c4ccccc4n1c23 | 9.88 µM | – | 6.55 µM | 6.31 µM | 13.9 µM | 10.4 µM | – | 19.3 µM | – | – | – | – | – | – | – | – | – | – |
| Cc1cc(=O)[nH]c(NN2C(Cl)C(=O)C2c2cccc(Cl)c2)n1 (stereo unspecified) | – | 33.9 µM | 55.2 µM | > 100 µM | – | > 100 µM | – | 79.3 µM | – | – | – | – | – | – | – | – | – | – |
| O=C1Nc2ccccc2Nc2ccncc21 | > 100 µM | > 100 µM | > 100 µM | > 100 µM | – | > 100 µM | – | > 100 µM | > 100 µM | > 31.6 µM | > 100 µM | – | – | – | – | – | – | – |
| CC(=O)[CH-]C(=O)c1ccccc1.CC(=O)[CH-]C(=O)c1ccccc1.C[C@]12CCC(=O)C=C1CC[C@@H]1C2CC[C@@]2(C)C1CC[C@]2(C)[O-].C[C@]12CCC(=O)C=C1CC[C@@H]1C2CC[C@@]2(C)C1CC[C@]2(C)[O-].Cl.[Ti+4] (stereo partly specified) | 40.9 µM | 89.9 µM | > 100 µM | – | 76.4 µM | > 100 µM | – | – | – | – | – | 12.2 µM | 17.4 µM | 40 µM | 20.7 µM | 26.5 µM | – | – |
| COc1cccc(/C=N/[N-]C(N)=O)c1[O-].[Cu+2].[OH3+].c1ccc(-c2ccccn2)nc1 | – | – | – | > 100 µM | – | – | – | – | – | – | – | – | – | – | – | – | 7.92 µM | 19.9 µM |
